Test results reported in ChEMBL document CHEMBL6134895, “Strategic Design and Optimization of Umifenovir Analogues: Balancing Antiviral Efficacy and hERG Toxicity against SARS-CoV-2” (J Med Chem, 2025).
The source made the active and inactive calls. The rule behind the calls is not given here.

Key:
[1] = Tmax in female C57BL/6 mouse at 20 mg/kg, po; format: ADME, organism-based; settings: in vivo
[2] = Volume of distribution at steady state in female C57BL/6 mouse at 2 mg/kg, iv; format: ADME, organism-based; settings: in vivo, read-out: Vdss
[3] = Half life in female C57BL/6 mouse at 2 mg/kg, iv; format: ADME, organism-based; settings: in vivo
[4] = biological target: Voltage-gated inwardly rectifying potassium channel KCNH2 (Homo sapiens, UniProt Q12809); test: Inhibition of hERG extracted from membrane (unknown origin) incubated for 4 hrs by fluorescence polarization assay; format: toxicity, cell membranes
[5] = Stability in mouse plasma assessed as compound remaining at 2 uM measured after 60 mins by LC-MS/MS analysis; format: ADME, cell-free; settings: read-out: Stability
[6] = Oral bioavailability in female C57BL/6 mouse at 20 mg/kg; format: ADME, organism-based; settings: in vivo
[7] = Microsomal stability in mouse liver microsomes assessed as intrinsic clearance measured per mg protein at 100 uM preincubated for 15 mins followed by NADPH addition measured up to 60 mins by LC-MS/MS analysis; format: ADME, Microsome; settings: time < 75 min, read-out: CLH
[8] = Stability in human plasma assessed as compound remaining at 2 uM measured after 60 mins by LC-MS/MS analysis; format: ADME, cell-free; settings: read-out: Stability
[9] = Clearance in female C57BL/6 mouse at 2 mg/kg, iv; format: ADME, organism-based; settings: in vivo
[10] = Microsomal stability in human liver microsomes assessed as half life at 100 uM preincubated for 15 mins followed by NADPH addition measured up to 60 mins by LC-MS/MS analysis; format: ADME, Microsome; settings: time < 75 min
[11] = Lipophilicity, LogD of compound in sodium phosphate buffer/n-octanol incubated for 3 hrs by LC-UV analysis; format: physicochemical
SARS-CoV-2 [12] = test: Antiviral activity against SARS CoV-2 Wuhan infected in African green monkey Vero E6 cells assessed as decrease in spike protein expression at 0.5 uM incubated for 48 hrs by immunofluorescence based analysis; format: functional, organism-based; settings: Severe acute respiratory syndrome coronavirus 2
[13] = Cmax in female C57BL/6 mouse at 20 mg/kg, po; format: ADME, organism-based; settings: in vivo
[14] = AUC (0 to infinity) in female C57BL/6 mouse at 20 mg/kg, po; format: ADME, organism-based; settings: in vivo
Vero C1008 = test: Cytotoxicity against African green monkey Vero E6 cells assessed as cell viability at 5 uM incubated for 48 hrs by MTT assay; format: toxicity, cell-based; settings: chlorocebus sabaeus, vero c1008, 48 h, 5 µM
SARS-CoV-2 [15] = test: Antiviral activity against SARS CoV-2 Wuhan infected in African green monkey Vero E6 cells assessed as decrease in green fluorescence at 0.5 uM incubated for 48 hrs by confocal microscopy; format: functional, organism-based; settings: Severe acute respiratory syndrome coronavirus 2
[16] = Microsomal stability in human liver microsomes assessed as compound remaining at 100 uM preincubated for 15 mins followed by NADPH addition measured after 60 mins by LC-MS/MS analysis; format: ADME, Microsome; settings: time 75 min, read-out: Stability
[17] = Stability in human plasma assessed as half life at 2 uM measured up to 120 mins by LC-MS/MS analysis; format: ADME, cell-free
[18] = Microsomal stability in human liver microsomes assessed as intrinsic clearance measured per mg protein at 100 uM preincubated for 15 mins followed by NADPH addition measured up to 60 mins by LC-MS/MS analysis; format: ADME, Microsome; settings: time < 75 min, read-out: CLH
[19] = Stability in mouse plasma assessed as half life at 2 uM measured up to 120 mins by LC-MS/MS analysis; format: ADME, cell-free
[20] = AUC (0 to infinity) in female C57BL/6 mouse at 2 mg/kg, iv; format: ADME, organism-based; settings: in vivo
SARS-CoV-2 [21] = test: Potency index, ratio of Arbidol IC50 to test compound IC50 for antiviral activity against SARS CoV-2 Wuhan infected in African green monkey Vero E6 cells assessed as inhibition of viral replication pretreated for 15 mins followed by compound removal and induction of viral infection for 1 hr and subsequent removal of inoculum and further addition of media containing compound measured after 24 hrs …; format: functional, Severe acute respiratory syndrome coronavirus 2; settings: time 24.25 hrs
[22] = Microsomal stability in mouse liver microsomes assessed as half life at 100 uM preincubated for 15 mins followed by NADPH addition measured up to 60 mins by LC-MS/MS analysis; format: ADME, Microsome; settings: time < 75 min
SARS-CoV-2 [23] = test: Antiviral activity against SARS CoV-2 Wuhan infected in African green monkey Vero E6 cells assessed as decrease in viral particles at 0.5 uM incubated for 48 hrs by confocal microscopy; format: functional, organism-based; settings: Severe acute respiratory syndrome coronavirus 2
[24] = Microsomal stability in mouse liver microsomes assessed as compound remaining at 100 uM preincubated for 15 mins followed by NADPH addition measured after 60 mins by LC-MS/MS analysis; format: ADME, Microsome; settings: time 75 min, read-out: Stability
SARS-CoV-2 [25] = test: Antiviral activity against SARS CoV-2 Wuhan infected in African green monkey Vero E6 cells assessed as inhibition of viral replication pretreated for 15 mins followed by compound removal and induction of viral infection for 1 hr and subsequent removal of inoculum and further addition of media containing compound measured after 24 hrs by cell-based ELISA; format: functional, organism-based; settings: Severe acute respiratory syndrome coronavirus 2, Wuhan, Vero C1008

Sequence of Voltage-gated inwardly rectifying potassium channel KCNH2 (Q12809 whole entry): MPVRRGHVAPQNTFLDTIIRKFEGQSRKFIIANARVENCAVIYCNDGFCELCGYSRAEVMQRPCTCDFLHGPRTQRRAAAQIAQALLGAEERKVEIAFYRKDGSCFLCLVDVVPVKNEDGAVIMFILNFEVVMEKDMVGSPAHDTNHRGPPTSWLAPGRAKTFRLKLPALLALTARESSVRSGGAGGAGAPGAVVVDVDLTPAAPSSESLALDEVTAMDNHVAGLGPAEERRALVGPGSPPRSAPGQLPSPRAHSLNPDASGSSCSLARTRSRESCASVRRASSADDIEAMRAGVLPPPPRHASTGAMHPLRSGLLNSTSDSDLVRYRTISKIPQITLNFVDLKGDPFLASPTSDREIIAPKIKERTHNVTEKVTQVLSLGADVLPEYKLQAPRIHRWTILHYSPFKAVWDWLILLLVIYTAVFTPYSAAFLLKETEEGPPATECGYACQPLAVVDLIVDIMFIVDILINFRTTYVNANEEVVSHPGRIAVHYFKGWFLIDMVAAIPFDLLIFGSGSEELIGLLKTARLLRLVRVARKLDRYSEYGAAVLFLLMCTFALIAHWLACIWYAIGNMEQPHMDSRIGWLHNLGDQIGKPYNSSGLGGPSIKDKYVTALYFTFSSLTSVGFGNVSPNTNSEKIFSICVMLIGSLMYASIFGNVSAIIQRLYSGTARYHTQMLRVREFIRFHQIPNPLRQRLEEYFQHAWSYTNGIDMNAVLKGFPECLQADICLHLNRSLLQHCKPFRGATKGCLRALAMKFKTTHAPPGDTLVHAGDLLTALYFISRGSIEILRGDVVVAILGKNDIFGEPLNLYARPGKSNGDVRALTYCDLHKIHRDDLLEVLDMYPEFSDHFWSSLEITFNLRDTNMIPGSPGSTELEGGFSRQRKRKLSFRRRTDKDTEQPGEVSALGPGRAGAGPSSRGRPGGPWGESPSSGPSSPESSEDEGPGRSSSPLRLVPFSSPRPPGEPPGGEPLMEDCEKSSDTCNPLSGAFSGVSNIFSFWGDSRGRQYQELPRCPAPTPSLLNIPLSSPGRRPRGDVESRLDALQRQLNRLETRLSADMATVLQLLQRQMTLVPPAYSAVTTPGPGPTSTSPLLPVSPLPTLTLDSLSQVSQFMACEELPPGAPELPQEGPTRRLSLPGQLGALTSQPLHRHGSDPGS

Cc1ccc(Cn2c(CSc3c(C)cc(C)cc3C)c(C(=O)N3CCC(N4CCOCC4)CC3)c3cc(O)c(Br)cc32)cc1
Tmax [1]: 120 min | Vd [2]: 13.4 L/kg | half-life [3]: 86.4 min | IC50 [4]: 15.9 µM | remaining at 1 h, 2 µM [5]: 44% | bioavailability [6]: 33.9% | microsomal CLint at 100 µM [7]: 31.3 µL/min/mg | remaining at 1 h, 2 µM [8]: 27.1% | clearance [9]: 92.4 mL/min/kg | half-life at 100 µM [10]: 19.8 min | logD at 3 h [11]: 2.45 | Activity (SARS-CoV-2 [12]): Active | Cmax [13]: 148 ng/mL | AUC(0-inf) [14]: 1190 ng·h/mL | Activity (Vero C1008): Non-toxic | Activity (SARS-CoV-2 [15]): Active | remaining at 1 h, 100 µM [16]: 11.4% | half-life at 2 µM [17]: 41.1 min | microsomal CLint at 100 µM [18]: 35 µL/min/mg | half-life at 2 µM [19]: 53.5 min | AUC(0-inf) [20]: 352 ng·h/mL | Ratio IC50 (SARS-CoV-2 [21]): ~13 | half-life at 100 µM [22]: 26.9 min | Activity (SARS-CoV-2 [23]): Active; Activity Was Comparable To Remdesivir | remaining at 1 h, 100 µM [24]: 14.7% | IC50 (SARS-CoV-2 [25]): 0.67 µM
